Measurements reported in BindingDB's records for patent US11440899 (Merck Patent GmbH, 2022).

Legend:
[1] = target: T1, Serine/threonine-protein kinase TBK1 (Homo sapiens, UniProt Q9UHD2); assay: TBK Biochemical Assay
T1 sequence (Q9UHD2 whole entry): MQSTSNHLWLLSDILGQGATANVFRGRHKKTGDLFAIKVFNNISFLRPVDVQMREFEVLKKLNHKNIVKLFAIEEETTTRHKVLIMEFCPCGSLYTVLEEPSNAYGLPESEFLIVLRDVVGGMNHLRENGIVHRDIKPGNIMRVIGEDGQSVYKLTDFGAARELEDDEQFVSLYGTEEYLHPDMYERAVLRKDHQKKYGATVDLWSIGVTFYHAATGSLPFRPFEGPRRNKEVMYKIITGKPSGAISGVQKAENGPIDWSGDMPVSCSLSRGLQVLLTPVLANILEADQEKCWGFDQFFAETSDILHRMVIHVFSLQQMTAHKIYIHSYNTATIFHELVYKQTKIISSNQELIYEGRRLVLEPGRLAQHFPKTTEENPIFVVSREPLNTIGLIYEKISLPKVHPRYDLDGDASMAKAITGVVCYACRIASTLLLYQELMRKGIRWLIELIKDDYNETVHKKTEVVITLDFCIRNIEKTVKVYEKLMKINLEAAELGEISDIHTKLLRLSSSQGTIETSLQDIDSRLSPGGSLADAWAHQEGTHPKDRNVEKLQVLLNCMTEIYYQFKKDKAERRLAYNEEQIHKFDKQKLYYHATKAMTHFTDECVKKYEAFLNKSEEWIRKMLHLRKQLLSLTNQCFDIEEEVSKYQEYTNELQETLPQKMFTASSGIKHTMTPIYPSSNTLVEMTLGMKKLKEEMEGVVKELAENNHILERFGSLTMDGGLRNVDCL
Protocol: (§1) Test compounds were transferred into Labcyte polypropylene 384 well plates (P055-25) and diluted to 3 mM using DMSO. 3 mM test compounds were dispensed using Labcyte ECHO dose response module into Greiner 784075 plates (columns 3-12 and 13-22, 10 point 1:4) so that high concentration was 30 uM final. 100 uM of a reference compound (1 uM final high concentration). Backfilling was performed if necessary so that all wells contain 1% DMSO final:add 75 nl DMSO/well into columns 1, 2 and 24 using Labcyte Echo.add 75 nl 1.0 mM staurosporine/well into column 23 using Labcyte Echo (10 uM final)add 4.5 ul enzyme/well using multidrop dispenseradd 3 ul substrate/well using multidrop dispenserincubate at 25° C. in Heidolph incubator for 90 min.add 7.5 ul 2× stop buffer using multidrop dispenserread on labchip ez reader II using TBK1.jobRaw data files were opened in the Caliper LabChip Reviewer program (Version 3.0.265.0 SP2) and peak assignments were adjusted to reflect substrate first with the software's post-run analysis options. A spline-fit baseline was applied using the software's analysis algorithm.

[2] = target: T2, Inhibitor of nuclear factor kappa-B kinase subunit epsilon (Homo sapiens, UniProt Q14164); assay: IKKe Biochemical Assay
T2 sequence (Q14164 whole entry): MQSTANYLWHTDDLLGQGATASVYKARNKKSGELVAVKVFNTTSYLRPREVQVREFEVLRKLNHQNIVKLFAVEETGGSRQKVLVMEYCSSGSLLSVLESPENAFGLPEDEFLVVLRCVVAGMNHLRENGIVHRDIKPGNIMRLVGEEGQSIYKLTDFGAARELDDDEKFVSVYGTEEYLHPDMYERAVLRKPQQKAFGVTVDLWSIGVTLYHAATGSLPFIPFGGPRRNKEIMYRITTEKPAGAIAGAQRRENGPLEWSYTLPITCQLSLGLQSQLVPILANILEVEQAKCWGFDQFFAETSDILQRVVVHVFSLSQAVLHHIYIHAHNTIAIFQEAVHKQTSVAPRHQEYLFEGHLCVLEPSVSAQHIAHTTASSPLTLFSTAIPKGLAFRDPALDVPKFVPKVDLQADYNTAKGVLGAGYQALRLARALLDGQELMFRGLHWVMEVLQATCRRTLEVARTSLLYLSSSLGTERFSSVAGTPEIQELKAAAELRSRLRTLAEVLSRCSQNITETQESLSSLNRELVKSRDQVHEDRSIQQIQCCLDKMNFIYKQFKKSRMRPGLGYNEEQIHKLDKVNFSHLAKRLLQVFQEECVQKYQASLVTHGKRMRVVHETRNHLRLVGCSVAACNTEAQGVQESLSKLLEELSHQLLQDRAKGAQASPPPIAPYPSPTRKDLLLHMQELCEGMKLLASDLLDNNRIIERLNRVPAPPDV
Protocol: as §1, with “C.” for “C. in Heidolph incubator”, “bufferread” for “buffer using multidrop dispenserread”, “IKKε. jobRaw” for “TBK1.jobRaw”

IC50 [1]: < 100 nM
IC50 [2]: < 100 nM
Compound: COc1nc(Nc2cc(-c3ccc(O[C@@H]4CCN(C(=O)[C@@H](C)O)CC4(F)F)c(C#N)c3)ncn2)ccc1N1CCN(C2COC2)CC1 [US11440899, Example 96]
